# Measurements taken from patent publication US20180346446A1, “IRE1 SMALL MOLECULE INHIBITORS” (QUENTIS THERAPEUTICS, INC., priority 2017, published 2018).
# Where a name gives a salt, the structure may show the parent alone.
# Columns and labels:
# IRE1a [1] = target: T1, IRE1a (Homo sapiens, UniProt O75460); test: IRE1a Endoribonuclease Nanoluciferase Assay (XBP1 luciferase reporter in 293T cells); format: cell-based; conditions: 293T cells transfected with XBP1 luciferase reporter, ER stressors +/- inhibitors
# Outline: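 293T cells were transfected with a PGK-Luc2-P2A-XBP1u-nanoluciferase-PEST reporter and plated in 96-well format. A day later they were treated with ER stressors with or without inhibitors. Lysates were read for luminescence with OneGlo, then again after Stop and Glo.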
# 293T cells = test: Growth assay (cytotoxicity); format: cell-based; conditions: 2 day incubation
# Protocol: A growth assay was performed to evaluate the compounds disclosed herein for cytotoxicity. Briefly, 5,000,000 293T cells were resuspended in 18 mL of cDMEM for a final concentration of 277,777 cells/mL. […] In a separate 96 well dilution plate, 199 uL cDMEM and 1 uL of DMSO or any one of the compounds disclosed herein (shown as Test Compound 1, 2, 3, 4, 5, or 6 below) were added to wells A4, A8, C4, C8, E4, E8, G4, and G8. 133.3 uL cDMEM was added to wells 1, 2, 3, 5, 6, and 7 in rows A, C, E and G of the dilution plate. Compounds were serially diluted leftwards in threefold dilutions (66.7 uL into 133.3 uL cDMEM). 20 uL of each dilution was transferred in duplicate (duplicates in vertical paired wells) to the cells plated in the 96-well plate shown in Table 5, to the total concentrations shown below. 200 uL cDMEM was added to media wells (wells G5-H8). The plate was then placed in a humidified chamber for a 2 day incubation, and then photographed (media was more yellow in wells with potent cell growth). Absorbance was then measured at about […] (lower for more acidic media) and about […] (higher for more acidic media).
# hERG channel = target: T2, hERG channel (Homo sapiens, UniProt Q12809); test: hERG potassium ion channel automated planar clamp (QPatch); format: cell-based; conditions: hERG channel expressed in a stable CHO cell line, read-out: hERG channel blockade Mean IC50
# T2 construct: expressed in transfected cells
# Protocol: Blockade of the cardiac ion channel coded by the hERG gene can lead to cardiac arrhythmia. […] To determine the viability of the compounds disclosed herein as pharmacological agents that would not affect the hERG channel blockade, a standard automated planar clamp method was employed to determine the IC50 for various test compounds on their inhibition of the channel. An electrophysiological assay was prepared to measure the electric current passing through the hERG channel expressed in a stable CHO cell line by applying the planar clamp method. This assay was performed using the automated QPatch platform (Sophion, Denmark) which allows fast and accurate electrophysiological characterization of the hERG ion channel and the determination of IC50 values for the test compounds, as shown in Table 9.
# IRE1a [2] = target: T1, IRE1a; test: In vitro FRET assay (XBP1 RNA probe cleavage by IRE1a); format: biochemical; design: purchased SignalChem; conditions: 2 nM IRE1a protein
# [3] = Microsome stability assay, human liver microsomes; format: in vitro ADME; conditions: formic acid salt
# Protocol: (§1) The formic acid salt of Compound 3 was tested under the microsome stability assay outlined below. Test compounds were incubated at 37° C. with liver microsomes (pooled from multiple donors) at […] in the presence of a NADPH regenerating system at 0.5 mg/ml microsomal protein. Positive controls included Testosterone (3A4 substrate), Propafenone (2D6) and Diclofenac (2C9), which were incubated with microsomes in the presence of an NADPH regenerating system. At time points (0, 5, 10, 20, 30 and 60 minutes), samples were removed and immediately mixed with cold acetonitrile containing internal standard (IS). Test compounds incubated with microsomes without the NADPH regenerating system for 60 min was also included. A single point for each test condition (n=1) was obtained, and samples were analyzed by LC/MS/MS. Disappearance of the test compound was assessed based on peak area ratios of analyte/IS (no standard curve).
# [4] = Microsome stability assay, mouse liver microsomes; format: in vitro ADME; conditions: formic acid salt
# Protocol: as §1
# [5] = test system: IRE1a-mediated XBP1 splicing; test: Suppression of XBP1 splicing in liver of tunicamycin-injected mice; format: in vivo; conditions: 0.25 mg/kg tunicamycin, 10 mg/kg compound intraperitoneal, 4 hours, RT-qPCR
# Protocol: Mice were injected with 0.25 mg/kg tunicamycin dissolved in DMSO: PBS at a ratio of 1:3. After 2 hours, the mice were injected with 10 mg/kg of Compound 3 dissolved in water or water alone as a vehicle control. After an additional 4 hours, the animals were euthanized, livers dissected out, and 2-3 mm^3 liver pieces are flash frozen on dry ice. Liver pieces were then thawed in Trizol on ice, homogenized for 3 minutes with a bead mill at medium-high speed. RNA was then extracted from the Trizol solution according to the manufacturer's recommendation. Gene expression analysis was also performed via Reverse Transcription quantitative PCR (RT-qPCR) using a Stratagene Mx3005 instrument and SYBR green I (Life Technologies). Gene expression was measured of the spliced Xbp1s transcript, a primer set measuring all Xbp1 transcripts, Xbp1s target genes including Sec24d and general ER stress response markers Hspa5 (BiP) and Ddit3 (CHOP).
# [6] = test system: IRE1a-mediated XBP1 splicing; test: Inhibition of IRE1a signaling in cell types of the tumor microenvironment (metastatic ovarian cancer mice); format: in vivo; conditions: mice with metastatic ovarian cancer, 11 mg/kg, 12 hours, tumor cells, DC, CD4+ and CD8+ T cells from ascites
# Protocol: A syngeneic mouse model for metastatic, orthotopic ovarian cancer was used to analyze the in vivo effects of compounds described herein. Assay conditions were similar to those described in Example 11, administering compound 3 for comparison against controls. […] After 12 hours, the ascites were drained and FACS was used to purify the cells into four populations: tumor cells, dendritic cells (DC), CD4+ T cells, and CD8+ T cells. Then, PCR and qPCR was used to quantify spliced Xbp1 transcripts and total Xbp1 transcripts. […] Compound 3 can therefore inhibit IRE1a-mediated XBP1 splicing in vivo in tumor cells and key immune cell types found within the tumor microenvironment.
# T2 sequence (Q12809 whole entry): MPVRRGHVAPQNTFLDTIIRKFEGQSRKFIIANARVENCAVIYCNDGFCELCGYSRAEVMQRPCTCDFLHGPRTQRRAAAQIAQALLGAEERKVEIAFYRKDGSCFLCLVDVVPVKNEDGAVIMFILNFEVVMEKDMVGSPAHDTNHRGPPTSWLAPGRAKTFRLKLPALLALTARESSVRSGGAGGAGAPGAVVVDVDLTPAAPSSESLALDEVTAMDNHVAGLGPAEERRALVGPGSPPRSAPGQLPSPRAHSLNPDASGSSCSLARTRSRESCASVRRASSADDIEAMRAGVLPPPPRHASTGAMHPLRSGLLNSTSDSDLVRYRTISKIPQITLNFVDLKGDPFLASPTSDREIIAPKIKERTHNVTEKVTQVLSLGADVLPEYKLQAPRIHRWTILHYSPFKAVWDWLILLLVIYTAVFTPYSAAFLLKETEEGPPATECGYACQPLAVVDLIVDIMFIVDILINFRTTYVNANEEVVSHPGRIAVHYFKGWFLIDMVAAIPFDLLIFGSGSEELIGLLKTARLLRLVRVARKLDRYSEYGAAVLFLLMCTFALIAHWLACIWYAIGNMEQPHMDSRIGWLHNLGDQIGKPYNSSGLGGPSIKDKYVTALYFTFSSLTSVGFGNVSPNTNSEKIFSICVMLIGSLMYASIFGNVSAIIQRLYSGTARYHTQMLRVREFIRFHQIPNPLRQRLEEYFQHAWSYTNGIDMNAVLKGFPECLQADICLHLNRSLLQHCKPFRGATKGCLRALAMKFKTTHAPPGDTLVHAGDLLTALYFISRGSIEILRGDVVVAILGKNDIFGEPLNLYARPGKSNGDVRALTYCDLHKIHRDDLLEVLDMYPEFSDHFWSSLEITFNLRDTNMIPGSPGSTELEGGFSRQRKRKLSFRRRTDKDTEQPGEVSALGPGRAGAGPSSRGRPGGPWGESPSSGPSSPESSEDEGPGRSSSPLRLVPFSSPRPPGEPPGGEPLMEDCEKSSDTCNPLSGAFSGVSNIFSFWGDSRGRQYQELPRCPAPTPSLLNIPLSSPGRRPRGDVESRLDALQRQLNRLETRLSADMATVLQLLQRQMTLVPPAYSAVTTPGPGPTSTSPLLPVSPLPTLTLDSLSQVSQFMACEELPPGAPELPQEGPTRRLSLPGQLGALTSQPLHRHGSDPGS
# T1 sequence (O75460 19-977): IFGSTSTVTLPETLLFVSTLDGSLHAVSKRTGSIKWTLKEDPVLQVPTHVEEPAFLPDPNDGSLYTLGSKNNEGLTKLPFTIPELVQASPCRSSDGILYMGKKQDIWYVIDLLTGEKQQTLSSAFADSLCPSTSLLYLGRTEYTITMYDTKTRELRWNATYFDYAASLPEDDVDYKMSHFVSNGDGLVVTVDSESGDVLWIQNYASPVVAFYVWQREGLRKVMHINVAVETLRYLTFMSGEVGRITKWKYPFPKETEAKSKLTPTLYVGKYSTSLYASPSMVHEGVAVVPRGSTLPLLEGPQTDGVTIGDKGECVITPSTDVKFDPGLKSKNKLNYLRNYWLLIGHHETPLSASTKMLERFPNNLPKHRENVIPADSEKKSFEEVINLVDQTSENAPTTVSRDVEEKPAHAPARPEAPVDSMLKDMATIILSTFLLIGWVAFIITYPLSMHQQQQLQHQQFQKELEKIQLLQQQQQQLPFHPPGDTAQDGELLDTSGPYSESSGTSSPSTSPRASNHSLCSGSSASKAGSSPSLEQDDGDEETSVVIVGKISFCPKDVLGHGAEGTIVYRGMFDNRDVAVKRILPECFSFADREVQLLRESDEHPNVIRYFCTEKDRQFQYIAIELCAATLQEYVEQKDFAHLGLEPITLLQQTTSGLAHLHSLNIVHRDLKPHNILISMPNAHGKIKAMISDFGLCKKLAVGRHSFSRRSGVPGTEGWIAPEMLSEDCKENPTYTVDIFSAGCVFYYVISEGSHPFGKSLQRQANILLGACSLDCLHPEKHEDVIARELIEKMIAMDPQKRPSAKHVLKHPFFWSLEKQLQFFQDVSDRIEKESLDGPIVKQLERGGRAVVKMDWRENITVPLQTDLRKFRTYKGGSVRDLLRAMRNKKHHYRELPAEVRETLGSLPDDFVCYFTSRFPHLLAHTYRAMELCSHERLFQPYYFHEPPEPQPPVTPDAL
Structure (SMILES),EC50 (IRE1a [1]) [nM],% Growth at 0.185 uM (293T cells),% Growth at 0.5556 uM (293T cells),% Growth at 1.667 uM (293T cells),% Growth at 5 uM (293T cells),IC50 (hERG channel) [nM],IC50 (IRE1a [2]) [nM],HLM Remaining at 60 min ([3]; 60 min) [%],"Human CI ([3]; human liver microsomes, 37° C., NADPH regenerating system) [µL/min/mg]","half-life at 1 NM ([3]; human, liver microsomes (pooled from multiple donors), 37° C., 0.5 mg/ml microsomal protein, NADPH regenerating system, read-out: Human Liver Microsome (HLM) T1/2) [min]","Mouse Liver Microsome CI ([4]; 37° C., NADPH regenerating system) [µL/min/mg]",Mouse Liver Microsome Remaining at 60 min ([4]; 60 min) [%],"half-life at 1 NM ([4]; mouse, liver microsomes (pooled from multiple donors), 37° C., 0.5 mg/ml microsomal protein, NADPH regenerating system, read-out: Mouse Liver Microsome T1/2) [min]",suppression of IRE1a-mediated XBP1 splicing in vivo [5],splicing ratio of XBP1 (spliced Xbp1 transcripts divided by total Xbp1 transcripts) compared to vehicle-treated mice [6]
CCc1cc(-c2ccc(NS(=O)(=O)c3ccccc3Cl)cc2C)cc2cnc(N[C@H]3CC[C@H](N)CC3)nc12.O=CO [3; Formic Acid],5 to 50,D (D: >75% to ≤100%),D (D: >75% to ≤100%),C (C: >50% to ≤75%),A (A: ≤25%),10000 to 50000,≤ 5,,,,,,,,
CCc1cc(-c2ccc(NS(=O)(=O)c3ccccc3Cl)nc2C)cc2cnc(N[C@H]3CC[C@H](N)CC3)nc12.O=CO [16; Formic Acid],≤ 5,D (D: >75% to ≤100%),D (D: >75% to ≤100%),D (D: >75% to ≤100%),B (B: >25% to ≤50%),10000 to 50000,≤ 5,,,,,,,,
CCc1cc(-c2ccc(NS(=O)(=O)c3ccccc3Cl)c(F)c2)cc2cnc(N[C@H]3CC[C@H](N)CC3)nc12.O=CO [24; Formic Acid],≤ 5,D (D: >75% to ≤100%),D (D: >75% to ≤100%),C (C: >50% to ≤75%),C (C: >50% to ≤75%),1000 to 10000,≤ 5,,,,,,,,
CCc1cc(-c2ccc(NS(=O)(=O)c3ccccc3Cl)nc2OC)cc2cnc(N[C@H]3CC[C@H](N)CC3)nc12 [37; HCl ^],≤ 5,,D (D: >75% to ≤100%),C (C: >50% to ≤75%),B (B: >25% to ≤50%),10000 to 50000,≤ 5,,,,,,,,
CCc1cc(-c2ccc(NS(=O)(=O)c3ccccc3Cl)c(F)c2)cc2cnc(N[C@H]3CC[C@H](N(C)C)CC3)nc12.O=CO [69; Formic Acid],≤ 5,,D (D: >75% to ≤100%),C (C: >50% to ≤75%),C (C: >50% to ≤75%),10000 to 50000,≤ 5,,,,,,,,
"CCc1cc(-c2ccc(NS(=O)(=O)c3ccccc3Cl)cc2C)cc2cnc(N[C@H]3CC[C@H](N)CC3)nc12 [Compound 3, N-(4-(2-(((1r,4r)-4-aminocyclohexyl)amino)-8-ethylquinazolin-6-yl)-3-methylphenyl)-2-chlorobenzenesulfonamide]",,,,,,,,44,29.2,47.5,31.9,41,43.5,potently suppresses,markedly reduced
